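All cell lines were grown in 96-well plates and treated with compound for 48 hours. The concentration for 50% growth inhibition is given as GI50.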 Activity calls are given as the source filed them. Cut-off read from the data, not from the text of the source: active = GI50 up to about 1.1 µM and inactive = higher.

Some test systems named below: A549; ACHN; HCC 2998; IGROV-1; K562; KM12; M14; OVCAR-5; PC-3; SF-268; SK-MEL-2; SK-MEL-5; SK-OV-3; SN12C; SNB-75; SR; U-251; UACC-257; UACC-62; UO-31.
Assay in all cases: inhibition of tumour cell growth, NCI panel, 48 h

For `Cl/C(=C\C=N\c1ccc(I)cc1)c1ccc2ccccc2c1`, the GI50 with A549 is 33.3 µM (inactive); in the assay with ACHN, 10.5 µM (inactive); with HCC 2998, 0.0322 µM (active); with IGROV-1, 17.9 µM (inactive); in the assay on K562, 6.14 µM (inactive); in the assay on KM12, 13.1 µM (inactive). Besides, the GI50 in the assay on M14 was 14.3 µM (inactive); in the assay with OVCAR-5 it was 34.6 µM (inactive); in the assay on PC-3, 25.3 µM (inactive); in the assay on SF-268, 20.7 µM (inactive); in the assay with SK-MEL-2, 18.9 µM (inactive); with SK-MEL-5, 18 µM (inactive). Moreover, the GI50 in the assay with SK-OV-3 is 22.5 µM (inactive); with SN12C, 17.9 µM (inactive); in the assay with SNB-75 it was 28.4 µM (inactive); in the assay on SR it was 3.91 µM (inactive); in the assay with U-251 it was 16.4 µM (inactive); in the assay with UACC-257, 15.4 µM (inactive). Besides, the GI50 in the assay on UACC-62 is 8.83 µM (inactive); in the assay on UO-31, 17.5 µM (inactive).
For `CC1CC2OC(=N)C1(C#N)C2(C#N)C#N` (stereo not given), the GI50 in the assay with A549 is > 100 µM (inactive); with ACHN it was 31.4 µM (inactive); in the assay on HCC 2998, 19.5 µM (inactive); with IGROV-1, 20.3 µM (inactive); with K562, 17.9 µM (inactive); with KM12, 39.3 µM (inactive). Besides, the GI50 is 29.6 µM (inactive) in the assay on M14; 21.6 µM (inactive) in the assay on OVCAR-5; 25.7 µM (inactive) with PC-3; 21.8 µM (inactive) with SF-268; 20.3 µM (inactive) in the assay on SK-MEL-2; 10.4 µM (inactive) in the assay on SK-MEL-5. Further, the GI50 is > 100 µM (inactive) in the assay with SK-OV-3; 19.5 µM (inactive) in the assay with SN12C; 11.5 µM (inactive) in the assay with SNB-75; 25.3 µM (inactive) in the assay on SR; 27.9 µM (inactive) in the assay with U-251; 18.8 µM (inactive) in the assay on UACC-257. Further, the GI50 is 23.4 µM (inactive) with UACC-62 and 24.5 µM (inactive) in the assay with UO-31.
On to `CC(C)c1cc2c(cc1S(=O)(=O)O)[C@@]1(C)CCC[C@@](C)(C(=O)O)C1CC2` (stereo not given in full), for which the GI50 in the assay on A549, in the assay on ACHN, in the assay on HCC 2998, in the assay on IGROV-1, with K562 and with KM12 was > 100 µM (inactive) each time. In addition, the GI50 in the assay with M14, in the assay on OVCAR-5, in the assay with PC-3, in the assay with SF-268, in the assay on SK-MEL-2 and in the assay with SK-MEL-5 was > 100 µM (inactive) throughout. In addition, the GI50 in the assay with SK-OV-3, with SN12C, in the assay with SNB-75, in the assay with SR, in the assay with U-251 and with UACC-257 was > 100 µM (inactive) each time. Further, the GI50 in the assay on UACC-62 and with UO-31 was > 100 µM (inactive) throughout.
With `C=C1C(=O)OC2C1C(OC(=O)/C(C)=C/C)CC1(C)C(=O)CCC(=C)C21` (stereo not given), the GI50 in the assay on A549 was 19.2 µM (inactive); in the assay with ACHN, 2.4 µM (inactive); in the assay with HCC 2998, 9.73 µM (inactive); in the assay on IGROV-1, 11.3 µM (inactive); with K562 it was 3.13 µM (inactive); with KM12, 16.4 µM (inactive). The GI50 in the assay on M14 is 5.26 µM (inactive); with OVCAR-5, 14.8 µM (inactive); with PC-3, 11 µM (inactive); in the assay on SF-268, 10.7 µM (inactive); in the assay with SK-MEL-2 it was 11.9 µM (inactive); in the assay on SK-MEL-5, 7.64 µM (inactive). The GI50 in the assay with SK-OV-3 was 25.2 µM (inactive); in the assay with SN12C, 2.15 µM (inactive); with SNB-75, 15.9 µM (inactive); in the assay with SR, 2.06 µM (inactive); with U-251 it was 13.1 µM (inactive); in the assay with UACC-257, 11.2 µM (inactive). For the same compound, the GI50 with UACC-62 is 8.47 µM (inactive); with UO-31, 6.55 µM (inactive).
In the case of `Cc1cccc2sc(NC(=O)c3cc([N+](=O)[O-])ccc3Cl)nc12`, the GI50 in the assay on A549 is 3.86 µM (inactive); in the assay on ACHN it was 5.41 µM (inactive); in the assay with HCC 2998 it was 9.33 µM (inactive); with IGROV-1 it was 2.68 µM (inactive); in the assay on K562, > 100 µM (inactive); in the assay on KM12, 2.42 µM (inactive). For the same compound, the GI50 was 1.77 µM (inactive) in the assay on M14; 5.87 µM (inactive) in the assay with OVCAR-5; 4.14 µM (inactive) in the assay with PC-3; 3.13 µM (inactive) in the assay with SF-268; 4.46 µM (inactive) with SK-MEL-2; 1.84 µM (inactive) with SK-MEL-5. For the same compound, the GI50 in the assay on SK-OV-3 was 13.1 µM (inactive); in the assay with SN12C, 1.55 µM (inactive); in the assay on SNB-75 it was 1 µM (active); with SR, > 100 µM (inactive); in the assay with U-251, 2.85 µM (inactive); in the assay with UACC-257 it was 6.84 µM (inactive). Besides, the GI50 in the assay on UACC-62 was 3.61 µM (inactive); in the assay on UO-31, 2.34 µM (inactive).
For the compound `Cc1cnc2[nH]c(-c3ccccc3)cc(=O)c2c1`, the GI50 was 0.0585 µM (active) in the assay on A549; 0.0608 µM (active) in the assay on ACHN; 0.0372 µM (active) in the assay on HCC 2998; 0.0817 µM (active) in the assay with IGROV-1; < 0.01 µM (active) in the assay on K562; 0.0138 µM (active) in the assay with KM12. Also, the GI50 was 0.0213 µM (active) in the assay on M14; 3.07 µM (inactive) in the assay with OVCAR-5; 0.0161 µM (active) in the assay with PC-3; 0.0697 µM (active) in the assay with SF-268; 0.0391 µM (active) in the assay with SK-MEL-2; < 0.01 µM (active) in the assay with SK-MEL-5. In addition, the GI50 in the assay with SK-OV-3 was 0.0284 µM (active); in the assay on SN12C it was 0.0527 µM (active); in the assay with SNB-75, 0.0122 µM (active); in the assay on SR, < 0.01 µM (active); in the assay on U-251, 0.0188 µM (active); in the assay with UACC-257, < 0.0218 µM (active). Also, the GI50 was < 0.0132 µM (active) in the assay on UACC-62 and 0.0528 µM (active) in the assay with UO-31.
Consider `COC1=CC(=O)c2c(O)c3c(c(O)c2C1=O)C[C@](C)(O)C[C@@H]3O`, for which the GI50 in the assay on A549 was 2.93 µM (inactive); with ACHN, 5.15 µM (inactive); with HCC 2998 it was 3.67 µM (inactive); with IGROV-1, 4.61 µM (inactive); with K562, 4.24 µM (inactive); in the assay with KM12, 4.13 µM (inactive). The GI50 was 2.6 µM (inactive) in the assay with M14; 12.7 µM (inactive) in the assay with OVCAR-5; 3.4 µM (inactive) in the assay on PC-3; 5.25 µM (inactive) with SF-268; 3.35 µM (inactive) with SK-MEL-2; 1.33 µM (inactive) in the assay on SK-MEL-5. The GI50 was 14.1 µM (inactive) in the assay with SK-OV-3; 3.63 µM (inactive) in the assay on SN12C; 9.42 µM (inactive) in the assay on SNB-75; 2.92 µM (inactive) in the assay on SR; 4.69 µM (inactive) in the assay on U-251; 1.99 µM (inactive) in the assay with UACC-257. The GI50 in the assay on UACC-62 was 1.46 µM (inactive); with UO-31 it was 11.4 µM (inactive).
